This note sets out measurements from patent publication US9175003B2, “Substituted azoanthracene derivatives and intermediates for preparation thereof” (TransTech Pharma, LLC, priority 2009, dated 2015).

The structures appear in SMILES notation.

One may read the EC50 as the concentration needed to bring the measured effect to its halfway point.

The test deals with human GLP-1 receptor (Homo sapiens (Human), UniProt P43220). To be noted: read-out: Mean EC50; cAMP, HTRF detection, 30 min at 37° C., HEK-293 cells expressing cloned human GLP-1 receptor. Background: Time-resolved FRET reads energy transfer from a long-lived donor to a nearby acceptor.
Sequence of human GLP-1 receptor (P43220 24-463): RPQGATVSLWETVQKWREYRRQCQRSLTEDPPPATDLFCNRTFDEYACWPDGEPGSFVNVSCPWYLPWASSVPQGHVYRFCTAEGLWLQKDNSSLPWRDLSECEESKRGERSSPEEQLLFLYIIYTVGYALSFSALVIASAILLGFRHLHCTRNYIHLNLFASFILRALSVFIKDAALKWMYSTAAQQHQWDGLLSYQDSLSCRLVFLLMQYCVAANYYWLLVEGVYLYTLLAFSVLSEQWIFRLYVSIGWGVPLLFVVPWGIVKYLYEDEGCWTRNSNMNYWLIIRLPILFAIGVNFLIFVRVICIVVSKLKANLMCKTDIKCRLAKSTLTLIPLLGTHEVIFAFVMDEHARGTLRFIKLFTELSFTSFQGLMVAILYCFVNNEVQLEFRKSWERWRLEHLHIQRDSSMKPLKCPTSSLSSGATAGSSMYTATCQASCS
On to `Cc1nccc(-c2ccc(C[C@H](NC(=O)[C@@H]3Cc4cc5c(cc4CN3C(=O)NC(C)(C)C)O[C@@H](c3ccc(OCc4ccc(Cl)c(Cl)c4)cc3)CO5)C(=O)O)cc2)c1C` [Example 251, (S)-2-({(3S,8S)-7-tert-Butylcarbamoyl-3-[4-(3,4-dichloro-benzyloxy)-phenyl]-2,3,6,7,8,9-hexahydro-[1,4]dioxino[2,3-g]isoquinoline-8-carbonyl}-amino)-3-[4-(2,3-dimethyl-pyridin-4-yl)-phenyl]-propionic acid], for which the EC50 amounted to 144 nM.
With `Cc1nccc(-c2ccc(C[C@H](NC(=O)[C@@H]3Cc4cc5c(cc4CN3C(=O)NC3CCCCC3)O[C@@H](c3ccc(OCc4ccc(Cl)c(Cl)c4)cc3)CO5)C(=O)O)cc2)c1C` [Example 252, (S)-2-({(3S,8S)-7-Cyclohexylcarbamoyl-3-[4-(3,4-dichloro-benzyloxy)-phenyl]-2,3,6,7,8,9-hexahydro-[1,4]dioxino[2,3-g]isoquinoline-8-carbonyl}-amino)-3-[4-(2,3-dimethyl-pyridin-4-yl)-phenyl]-propionic acid] the figure was 99 nM; with `Cc1cccc(NC(=O)N2Cc3cc4c(cc3C[C@H]2C(=O)N[C@@H](Cc2ccc(-c3ccnc(C)c3C)cc2)C(=O)O)OC[C@H](c2ccc(OCc3ccc(Cl)c(Cl)c3)cc2)O4)c1` [Example 253, (S)-2-({(3S,8S)-3-[4-(3,4-Dichloro-benzyloxy)-phenyl]-7-m-tolylcarbamoyl-2,3,6,7,8,9-hexahydro-[1,4]dioxino[2,3-g]isoquinoline-8-carbonyl}-amino)-3-[4-(2,3-dimethyl-pyridin-4-yl)-phenyl]-propionic acid], 85 nM.
For the compound `Cc1nccc(-c2ccc(C[C@H](NC(=O)[C@@H]3Cc4cc5c(cc4CN3C(=O)Nc3ccc(F)c(F)c3)O[C@@H](c3ccc(OCc4ccc(Cl)c(Cl)c4)cc3)CO5)C(=O)O)cc2)c1C` [Example 254, (S)-2-{[(3S,8S)-3-[4-(3,4-Dichloro-benzyloxy)-phenyl]-7-(3,4-difluoro-phenylcarbamoyl)-2,3,6,7,8,9-hexahydro-[1,4]dioxino[2,3-g]isoquinoline-8-carbonyl]-amino}-3-[4-(2,3-dimethyl-pyridin-4-yl)-phenyl]-propionic acid], the EC50 was found to be 186 nM.
`Cc1nccc(-c2ccc(C[C@H](NC(=O)[C@@H]3Cc4cc5c(cc4CN3C(=O)Nc3cc(F)cc(F)c3)O[C@@H](c3ccc(OCc4ccc(Cl)c(Cl)c4)cc3)CO5)C(=O)O)cc2)c1C` [Example 255, (S)-2-{[(3S,8S)-3-[4-(3,4-Dichloro-benzyloxy)-phenyl]-7-(3,5-difluoro-phenylcarbamoyl)-2,3,6,7,8,9-hexahydro-[1,4]dioxino[2,3-g]isoquinoline-8-carbonyl]-amino}-3-[4-(2,3-dimethyl-pyridin-4-yl)-phenyl]-propionic acid]: the EC50 was 317 nM.
With `Cc1nccc(-c2ccc(C[C@H](NC(=O)[C@@H]3Cc4cc5c(cc4CN3C(=O)Nc3cnccn3)O[C@@H](c3ccc(OCc4ccc(Cl)c(Cl)c4)cc3)CO5)C(=O)O)cc2)c1C` [Example 257, (S)-2-{[(3S,8S)-3-[4-(3,4-Dichloro-benzyloxy)-phenyl]-7-(pyrazin-2-ylcarbamoyl)-2,3,6,7,8,9-hexahydro-[1,4]dioxino[2,3-g]isoquinoline-8-carbonyl]-amino}-3-[4-(2,3-dimethyl-pyridin-4-yl)-phenyl]-propionic acid] the figure was 348 nM; with `Cc1nccc(-c2ccc(C[C@H](NC(=O)[C@@H]3Cc4cc5c(cc4CN3C(=O)Nc3ccccn3)O[C@@H](c3ccc(OCc4ccc(Cl)c(Cl)c4)cc3)CO5)C(=O)O)cc2)c1C` [Example 258, (S)-2-{[(3S,8S)-3-[4-(3,4-dichloro-benzyloxy)-phenyl]-7-(pyridin-2-ylcarbamoyl)-2,3,6,7,8,9-hexahydro-[1,4]dioxino[2,3-g]isoquinoline-8-carbonyl]-amino}-3-[4-(2,3-dimethyl-pyridin-4-yl)-phenyl]-propionic acid], 251 nM; with `Cc1ncoc1C(=O)N1Cc2cc3c(cc2C[C@H]1C(=O)N[C@@H](Cc1ccc(Oc2ccnc(C)c2C)cc1)C(=O)O)OC[C@H](c1ccc(OCc2ccc(Cl)c(Cl)c2)cc1)O3` [Example 263, (S)-2-{[(3S,8S)-3-[4-(3,4-Dichloro-benzyloxy)-phenyl]-7-(4-methyl-oxazole-5-carbonyl)-2,3,6,7,8,9-hexahydro-[1,4]dioxino[2,3-g]isoquinoline-8-carbonyl]-amino}-3-[4-(2,3-dimethyl-pyridin-4-yloxy)-phenyl]-propionic acid], 187 nM.
With `Cc1nc(C)c(C(=O)N2Cc3cc4c(cc3C[C@H]2C(=O)N[C@@H](Cc2ccc(Oc3ccnc(C)c3C)cc2)C(=O)O)OC[C@H](c2ccc(OCc3ccc(Cl)c(Cl)c3)cc2)O4)o1` [Example 265, (S)-2-{[(3S,8S)-3-[4-(3,4-Dichloro-benzyloxy)-phenyl]-7-(2,4-dimethyl-oxazole-5-carbonyl)-2,3,6,7,8,9-hexahydro-[1,4]dioxino[2,3-g]isoquinoline-8-carbonyl]-amino}-3-[4-(2,3-dimethyl-pyridin-4-yloxy)-phenyl]-propionic acid] the figure was 95 nM; with `Cc1cc(C(=O)N2Cc3cc4c(cc3C[C@H]2C(=O)N[C@@H](Cc2ccc(Oc3ccnc(C)c3C)cc2)C(=O)O)OC[C@H](c2ccc(OCc3ccc(Cl)c(Cl)c3)cc2)O4)n(C)n1` [Example 266, (S)-2-{[(3S,8S)-3-[4-(3,4-Dichloro-benzyloxy)-phenyl]-7-(2,5-dimethyl-2H-pyrazole-3-carbonyl)-2,3,6,7,8,9-hexahydro-[1,4]dioxino[2,3-g]isoquinoline-8-carbonyl]-amino}-3-[4-(2,3-dimethyl-pyridin-4-yloxy)-phenyl]-propionic acid], 132 nM.
Turning to `Cc1cc(C(=O)N2Cc3cc4c(cc3C[C@H]2C(=O)N[C@@H](Cc2ccc(-c3ccnc(C)c3C)cc2)C(=O)O)OC[C@H](c2ccc(OCc3ccc(Cl)c(Cl)c3)cc2)O4)n(C)n1` [Example 270, (S)-2-{[(3S,8S)-3-[4-(3,4-Dichloro-benzyloxy)-phenyl]-7-(2,5-dimethyl-2H-pyrazole-3-carbonyl)-2,3,6,7,8,9-hexahydro-[1,4]dioxino[2,3-g]isoquinoline-8-carbonyl]-amino}-3-[4-(2,3-dimethyl-pyridin-4-yl)-phenyl]-propionoc acid], the EC50 worked out at 142 nM.
For `Cc1cc(C(=O)N2Cc3cc4c(cc3C[C@H]2C(=O)N[C@@H](Cc2ccc(-c3ccnc(C)c3C)cc2)C(=O)O)OC[C@H](c2ccc(OCc3ccc(Cl)c(Cl)c3)cc2)O4)no1` [Example 271, (S)-2-{[(3S,8S)-3-[4-(3,4-Dichloro-benzyloxy)-phenyl]-7-(5-methyl-isoxazole-3-carbonyl)-2,3,6,7,8,9-hexahydro-[1,4]dioxino[2,3-g]isoquinoline-8-carbonyl]-amino}-3-[4-(2,3-dimethyl-pyridin-4-yl)-phenyl]-propionic acid], the EC50 stood at 102 nM.
With `Cc1nccc(-c2ccc(C[C@H](NC(=O)[C@@H]3Cc4cc5c(cc4CN3C(=O)C3CCN(C(=O)OC(C)(C)C)CC3)O[C@@H](c3ccc(OCc4ccc(Cl)c(Cl)c4)cc3)CO5)C(=O)O)cc2)c1C` [Example 274, 4-{(3S,8S)-8-{(S)-1-Carboxy-2-[4-(2,3-dimethyl-pyridin-4-yl)-phenyl]-ethylcarbamoyl}-3-[4-(3,4-dichloro-benzyloxy)-phenyl]-2,3,8,9-tetrahydro-6H-[1,4]dioxino[2,3-g]isoquinoline-7-carbonyl}-piperidine-1-carboxyl is acid tert-butyl ester] the figure was 2 nM; with `Cc1nccc(-c2ccc(C[C@H](NC(=O)[C@@H]3Cc4cc5c(cc4CN3C(=O)c3cccc(O)c3)O[C@@H](c3ccc(OCc4ccc(Cl)c(Cl)c4)cc3)CO5)C(=O)O)cc2)c1C` [Example 277, (S)-2-{[(3S,8S)-3-[4-(3,4-Dichloro-benzyloxy)-phenyl]-7-(3-hydroxy-benzoyl)-2,3,6,7,8,9-hexahydro-[1,4]dioxino[2,3-g]isoquinoline-8-carbonyl]-amino}-3-[4-(2,3-dimethyl-pyridin-4-yl)-phenyl]-propionic acid], 143 nM.
Take `Cc1nccc(-c2ccc(C[C@H](NC(=O)[C@@H]3Cc4cc5c(cc4CN3C(=O)c3cc(F)cc(F)c3)O[C@@H](c3ccc(OCc4ccc(Cl)c(Cl)c4)cc3)CO5)C(=O)O)cc2)c1C` [Example 278, (S)-2-{[(3S,8S)-3-[4-(3,4-Dichloro-benzyloxy)-phenyl]-7-(3,5-difluoro-benzoyl)-2,3,6,7,8,9-hexahydro-[1,4]dioxino[2,3-g]isoquinoline-8-carbonyl]-amino}-3-[4-(2,3-dimethyl-pyridin-4-yl)-phenyl]-propionic acid]: the half-maximal effective concentration (EC50) stood at 45 nM.
The same measure for `Cc1nccc(-c2ccc(C[C@H](NC(=O)[C@@H]3Cc4cc5c(cc4CN3C(=O)[C@H]3CCCN3C(=O)OC(C)(C)C)O[C@@H](c3ccc(OCc4ccc(Cl)c(Cl)c4)cc3)CO5)C(=O)O)cc2)c1C` [Example 279, (R)-2-{(3S,8S)-8-{(S)-1-Carboxy-2-[4-(2,3-dimethyl-pyridin-4-yl)-phenyl]-ethylcarbamoyl}-3-[4-(3,4-dichloro-benzyloxy)-phenyl]-2,3,8,9-tetrahydro-6H-[1,4]dioxino[2,3-g]isoquinoline-7-carbonyl}-pyrrolidine-1-carboxylic acid tert-butyl ester]: 15 nM; for `Cc1nccc(-c2ccc(C[C@H](NC(=O)[C@@H]3Cc4cc5c(cc4CN3C(=O)[C@H]3CCN(C(=O)OC(C)(C)C)C3)O[C@@H](c3ccc(OCc4ccc(Cl)c(Cl)c4)cc3)CO5)C(=O)O)cc2)c1C` [Example 280, (S)-3-{(3S,8S)-8-{(S)-1-Carboxy-2-[4-(2,3-dimethyl-pyridin-4-yl)-phenyl]-ethylcarbamoyl}-3-[4-(3,4-dichloro-benzyloxy)-phenyl]-2,3,8,9-tetrahydro-6H-[1,4]dioxino[2,3-g]isoquinoline-7-carbonyl}-pyrrolidine-1-carboxylic acid tert-butyl ester]: 165 nM.
